Data taken from patent US20070293666A1, “Optical Filter and Its Applications, and Porphyrin Compound Used in Optical Filter” (Mitsui Chemicals, Inc., priority 2004, published 2007).

Tests used:
Assay type in all cases: physicochemical
[1] = Light transmittance of optical filter (dye-containing acrylic adhesive sheet, 1000 ppm dye); conditions: dye 1000 (wt)ppm in acrylic adhesive, 25 μm
Procedure: When the compound (3-A) was dispersed and dissolved in a solvent of ethyl acetate and toluene (weight ratio 50:50) and dried, a dye-containing diluting agent for an acrylic adhesive was prepared such that the dye concentration in the resin was 1000 (wt)ppm. Subsequently, the acrylic adhesive (a copolymer of butyl acrylate and acrylic acid (Product name: DBBOND, manufactured by Diabond Industry Co., Ltd.)) and a dye-containing diluting agent were mixed (weight ratio 80:20), and continuously applied on a mold releasing layer of a mold releasing film comprising a polyethylene terephthalate film and a silicone mold releasing layer according to a bar coating method, and the resulting material was dried. Then, the other mold releasing film was attached to the coating surface to prepare a dye-containing adhesive sheet having a thickness of 25 μm with mold releasing films having different mold releasing forces at both sides.
The mold releasing film on one side of the prepared adhesive sheet was peeled away and the resulting sheet was attached to a transparent acrylic resin (manufactured by Mitsubishi Rayon Co., Ltd., Acrylite, thickness: 2 mm), while the mold releasing film on the other side thereof was further peeled away and an ultraviolet blocking film (manufactured by Teijin Co., Ltd., HB Film, thickness: 75 μm) was attached to prepare an optical filter.
With respect to the obtained optical filter, the light transmittance in a wavelength of from 300 to 800 nm was measured by using a spectrophotometer (Product name: U-3400, manufactured by Hitachi, Ltd.) in accordance with JIS R3106. A percentage of light transmittance at a wavelength of 550 nm to light transmittance at a wavelength of 525 nm was obtained.

Solubility in acetone = assay: Solubility in acetone; design: key: ∘: completely dissolved; x: not completely dissolved; conditions: for Solubility 0.1%: 0.1 weight % based on acetone; for Solubility 0.2%: 0.2 weight % based on acetone; for Solubility 1.0%: 1.0 weight % based on acetone
Procedure: (§1) Compounds represented by the compound Nos. 1-1, 1-2, 1-3, 1-4 and 1-7 (Table 1-1) were synthesized in the same manner as in Examples 1-1 and 1-2. With respect to compounds synthesized in Example 1-2 and Synthesis Example 1-1 along with these compounds, the maximum absorption wavelength (λmax), the gram absorption coefficient (εg) and solubility were measured.
(§2) λmax and εg are values in the chloroform solution, while the solubility is weight % based on acetone.

[2] = Light resistance test / artificial sunlight irradiation test of optical filter; conditions: visible light 380 to 780 nm, 50 mW/cm^2, 250 hours, 30±10° C., humidity 50±20%
Procedure: To evaluate light resistance of the dye, a sample prepared in the same method as in evaluation of heat resistance is used. The absorption retention rate represented by the above equation (1) is measured in the same manner as in heat resistance. However, in this case, the obtained sample is not kept under the environment of 80° C., but the above visible light ray is irradiated on a side of the ultraviolet blocking film of the sample in a room at a temperature of 30±10° C., a humidity of 50±20% for a predetermined time. Tmax,1 represents light transmittance in a maximum absorption wavelength after the above visible light ray is irradiated for a predetermined time. When there are a plurality of absorption maxima, Tmax,0 is light transmittance at a maximum absorption wavelength showing the highest absorption coefficient. Tmax,1 represents light transmittance at the same wavelength as that in Tmax,0 or at a maximum absorption wavelength nearest to the wavelength in Tmax,0.
With respect to the optical filters obtained from the compounds (3-A) to (3-F), environmental accelerated tests were carried out by artificial sunlight irradiation using a solar simulator (manufactured by Ushio Inc.). A visible light ray in a wavelength of from 380 to 780 nm was irradiated on the ultraviolet blocking film of the prepared optical filter at 50 mW/cm^2 for 250 hours in a room at a temperature of 30±10° C. and a humidity of 50±20%. At this time, an absorption retention rate represented by the above equation (1) was obtained.
With respect to the optical filters obtained from the compounds (3-A) and (3-B), environmental accelerated tests of high temperature, high-temperature/high-humidity and artificial sunlight irradiation were carried out. In the test, a constant temperature chamber at 80° C. (DN-61, manufactured by Yamato Scientific Co., Ltd.), a constant temperature and humidity chamber at 60° C. and 90% RH (Product name, FX2200, manufactured by Kusumoto Chemicals, Ltd.) and a solar simulator (manufactured by Ushio Inc.) were respectively used. A visible light ray in a wavelength of from 380 to 780 nm was irradiated on a surface of the ultraviolet blocking film of the above optical filter at 50 mW/cm^2 for a predetermined time in a room at a temperature of 30±10° C. and a humidity of 50±20%.
The above optical filters were kept under each environmental condition for 500 hours and 1000 hours, and light transmittance of the optical filter was measured by using the spectrophotometer after 500 hours and 1000 hours. An absorption retention rate in a maximum absorption wavelength after each environmental accelerated test was obtained from the above equation (2).

[3] = Absorption spectrum in chloroform (maximum absorption wavelength, gram absorption coefficient, 550/525 nm coefficient ratio); conditions: for εg (gram absorption coefficient) / λmax: chloroform solution; for Ratio of Absorption Coefficient at 525 nm and 550 nm: coefficient at 550 nm to coefficient at 525 nm
Procedure: as §1, §2
With respect to the compounds represented by the compound Nos. 1-2, 1-3, 1-6 and 1-7 synthesized in Examples 1-2 and 1-3 (corresponding to compounds (3-B), (3-C), (3-E) and (3-F) respectively) along with the obtained compound (3-A), the maximum absorption wavelength and the ratio of the absorption coefficient at a wavelength of 550 nm to the absorption coefficient at a wavelength of 525 nm, which were measured in a chloroform solvent, are shown in Table 3-1. [drawing 26] [drawing 27] [drawing 28] [drawing 29]

| Light Transmittance at 525 nm [1] [%] | Light Transmittance at 550 nm [1] [%] | T@550/T@525 Light Transmittance Ratio [1] [%] | Solubility 0.1% (Solubility in acetone) | Solubility 0.2% (Solubility in acetone) | Solubility 1.0% (Solubility in acetone) | Absorption Retention after Light resistance test for 250 hours [2] [%] | εg (gram absorption coefficient) [3] | λmax [3] [nm] | Maximum Absorption Wavelength ([3]; chloroform solvent) [nm] | Ratio of Absorption Coefficient at 525 nm and 550 nm ([3]; chloroform solvent) | Maximum Absorption Wavelength ([3]; in chloroform) [nm] | gram absorption coefficient ([3]; in chloroform) | Structure (SMILES) |
| --- | --- | --- | --- | --- | --- | --- | --- | --- | --- | --- | --- | --- | --- |
| 69.1 | 49.8 | 72 | ∘ | ∘ | ∘ | 80 | 122,000 | 553 | 553 | 2.3 |  |  | CCCCCCOc1ccc(C2=c3nc(c4c5cccc6cccc(c3=4)c65)C(c3ccc(OCCCCCC)cc3)=c3c4c(c5[n]3[Cu][n]3c2c2c(c3C(c3ccc(OCCCCCC)cc3)=c3nc(c6c7cccc8cccc(c3=6)c87)C=5c3ccc(OCCCCCC)cc3)-c3cccc5cccc-2c35)-c2cccc3cccc-4c23)cc1 [1-3] |
| 72.0 | 66.6 | 93 | ∘ | ∘ | ∘ | 94 | 122,000 | 552 | 552 | 1.4 |  |  | CCCCCCCCCCOc1ccc(C2=c3nc(c4c5ccc(Cl)c6c(Cl)ccc(c3=4)c65)C(c3ccc(OCCCCCCCCCC)cc3)=c3c4c(c5[n]3[Ni][n]3c2c2c(c3C(c3ccc(OCCCCCCCCCC)cc3)=c3nc(c6c7ccc(Cl)c8c(Cl)ccc(c3=6)c87)C=5c3ccc(OCCCCCCCCCC)cc3)-c3ccc(Cl)c5c(Cl)ccc-2c35)-c2ccc(Cl)c3c(Cl)ccc-4c23)cc1 [1-7] |
|  |  |  |  |  |  |  |  |  |  |  | 567 | 113,000 | CCCCCCCCCCOc1ccc(-c2c3nc(c(-c4ccc(OCCCCCCCCCC)cc4)c4[nH]c(c(-c5ccc(OCCCCCCCCCC)cc5)c5nc(c(-c6ccc(OCCCCCCCCCC)cc6)c6[nH]c2c2c7cccc8cccc(c87)c62)c2c6cccc7cccc(c76)c52)c2c5cccc6cccc(c65)c42)c2c4cccc5cccc(c54)c32)cc1 [1-A] |
|  |  |  |  |  |  |  |  |  |  |  | 563 | 110,000 | c1coc(-c2c3nc(c(-c4ccco4)c4[nH]c(c(-c5ccco5)c5nc(c(-c6ccco6)c6[nH]c2c2c7cccc8cccc(c87)c62)c2c6cccc7cccc(c76)c52)c2c5cccc6cccc(c65)c42)c2c4cccc5cccc(c54)c32)c1 [2-A] |
| 61.7 | 57.5 | 93 | ∘ | ∘ | ∘ | 97 | 135,000 | 536 | 536 | 1.2 | 536 | 135,000 | CCCCCCCCCCOc1ccc(C2=c3nc(c4c5cccc6cccc(c3=4)c65)C(c3ccc(OCCCCCCCCCC)cc3)=c3c4c(c5[n]3[Ni][n]3c2c2c(c3C(c3ccc(OCCCCCCCCCC)cc3)=c3nc(c6c7cccc8cccc(c3=6)c87)C=5c3ccc(OCCCCCCCCCC)cc3)-c3cccc5cccc-2c35)-c2cccc3cccc-4c23)cc1 [1-6] |
| 59.7 | 38.1 | 64 |  |  |  | 92 |  |  | 546 | 2.2 |  |  | CC(C)(C)c1ccc(C2=c3nc(c4c5cccc6cccc(c3=4)c65)C(c3ccc(C(C)(C)C)cc3)=c3c4c(c5[n]3[Cu][n]3c2c2c(c3C(c3ccc(C(C)(C)C)cc3)=c3nc(c6c7cccc8cccc(c3=6)c87)C=5c3ccc(C(C)(C)C)cc3)-c3cccc5cccc-2c35)-c2cccc3cccc-4c23)cc1 [3-D] |
|  |  |  | ∘ | ∘ | x |  | 162,000 | 553 |  |  |  |  | CCCCOc1ccc(C2=c3nc(c4c5cccc6cccc(c3=4)c65)C(c3ccc(OCCCC)cc3)=c3c4c(c5[n]3[Cu][n]3c2c2c(c3C(c3ccc(OCCCC)cc3)=c3nc(c6c7cccc8cccc(c3=6)c87)C=5c3ccc(OCCCC)cc3)-c3cccc5cccc-2c35)-c2cccc3cccc-4c23)cc1 [1-1] |
